Measurements reported in PMC9481597 (Communications Biology, 2022).
Several values for one entry are separate records, joined by “and”; a condition that tells them apart may be missing. Equal values may be shown once. Entries after “also recorded” stand apart in the source; their conditions may differ. Read-outs that look alike come from different tables or passages of the source. Marks after values point to notes of the source that are not given here.

How the values were obtained:
MPro^1–196 [1] = target: T1, MPro^1–196 (Severe acute respiratory syndrome coronavirus 2, UniProt P0DTC1); assay type: binding; conditions: NMV: 50 µM mixtures; GC373: high concentrations; diluted to 20 µM in 5% acetic acid
T1 construct: MPro^1–196 spans residues 1–196; 6His, spacer and TEV protease cleavage site (N, cleaved yes); made in house; host or cells: E. coli BL21-DE3

MPro^10–306 [2] = target: T2, MPro^10–306 (Severe acute respiratory syndrome coronavirus 2, UniProt P0DTC1); assay type: binding; conditions: 50 µM mixtures, diluted to 20 µM in 5% acetic acid
T2 construct: MPro^10–306 spans the region 10–306 of MPro followed by GP-6His; GP-6His (C, cleaved yes); made in house; host or cells: E. coli BL21-DE3

[3] = target: T3, MPro^1–199 (monomeric catalytic domain) (Severe acute respiratory syndrome coronavirus 2, UniProt P0DTC1); assay type: binding, SARS-CoV-2; design: made in house; host or cells: E. coli BL21-DE3
MPro^1–199 [4] = target: T4, MPro^1–199 (Severe acute respiratory syndrome coronavirus 2, UniProt P0DTC1); assay type: binding; conditions: for protein-inhibitor adduct in mass spectra: NMV: 50 µM mixtures, GC373: high concentrations, diluted to 20 µM in 5% acetic acid
T4 construct: made in house; host or cells: E. coli BL21-DE3

MPro^1–196 [5] = target: T1, MPro^1–196; design: species or system SARS-CoV-2
MPro^1–196 [6] = target: T1, MPro^1–196; assay type: binding, SARS-CoV-2
MPro^10–306 [7] = target: T2, MPro^10–306; design: species or system SARS-CoV-2
MPro^WT [8] = target: T5, MPro^WT (Severe acute respiratory syndrome coronavirus 2, UniProt P0DTC1); test: Monomer-dimer equilibrium of MPro^WT in the presence of inhibitor; design: species or system SARS-CoV-2; conditions: predicted because of thermodynamic stabilization of the dimer upon inhibitor binding
T5 construct: The full-length wild-type (MPro^WT) was expressed and purified; made in house; host or cells: E. coli BL21-DE3
Procedure: Enzyme kinetics were carried out as described previously in reference 1. ^(a)Calculated from Lineweaver-Burk plot. ^(b)Calculated from plot of v vs [E].

MPro^1–199 [9] = target: T4, MPro^1–199; design: species or system SARS-CoV-2
MPro^WT [10] = target: T5, MPro^WT; assay type: binding; conditions: protein with 2x inhibitor, diluted to 20 µM in 5% acetic acid
MPro^1–199 [11] = target: T4, MPro^1–199; assay type: biochemical, SARS-CoV-2
MPro^M = system: MPro^M; design: method as in earlier work; conditions: in presence of GC373; supplement numbering; cited from earlier work
MPro^10–306 [12] = target: T2, MPro^10–306; assay type: binding, SARS-CoV-2
[13] = target: T3, MPro^1–199 (monomeric catalytic domain); assay type: binding, SARS-CoV-2
[14] = system: MPro^M (full-length monomeric double mutant E290A, R298A); conditions: ITC, cited from earlier work

Row | Structure (SMILES) | protein-inhibitor adduct in mass spectra (MPro^1–196 [1]) | N [3] | ΔG [3] [kcal/mol] | ΔH [3] [kcal/mol] | ΔS [3] [cal/mol/K] | protein-inhibitor adduct in mass spectra (MPro^1–199 [4]) | Kdimer.app (MPro^1–196 [5]) [µM] | N (MPro^1–196 [6]) | ΔG (MPro^1–196 [6]) [kcal/mol] | ΔH (MPro^1–196 [6]) [kcal/mol] | ΔS (MPro^1–196 [6]) [cal/mol/K] | Kdimer.app (MPro^10–306 [7]) | Kdimer.app (MPro^WT [8]) | Kdimer.app (MPro^1–199 [9]) [µM] | apparent Kdimers (MPro^1–199 [9]) | dimer contribution (in monomer units) (MPro^1–199 [9]) [%] | faster sedimenting peak, share of signal (MPro^1–199 [9]) | protein-inhibitor adduct in mass spectra (MPro^WT [10]) | further results
1 | CC(C)(C)[C@H](NC(=O)C(F)(F)F)C(=O)N1C[C@H]2[C@@H]([C@H]1C(=O)N[C@H](C#N)C[C@@H]1CCNC1=O)C2(C)C [NMV, nirmatrelvir] | adducts were observed | 0.97 ± 0.04 | -6.5 | -3.9 ± 0.1 | 8.8 | adducts were observed | 510 ± 0.05 | 1.05 ± 0.03 | -6.7 | -1.8 ± 0.1 | 16.3 | >510 µM | ≤2^(d) µM | 180 ± 0.01 | more than 175 µM | 52 | 68% | nearly equal distribution of MPro^WT and the MPro^WT-NMV adduct | protein-inhibitor adduct in mass spectra (MPro^10–306 [2]): very little binding; also recorded: adducts were observed; stability of protein-adducts (MPro^1–199 [4]; 20 µM in acetic acid at ambient temperature (Figs. 7d and S10b)): stable for days; dimer contribution (in monomer units) (MPro^1–196 [5]): 33%; dimer formation in SV-AUC (MPro^10–306 [7]): no detectable dimer formation; slower sedimenting (2.31S) species, share of integrated signal (MPro^1–199 [9]): 32%; catalytic activity with the FRET substrate upon addition of inhibitor (MPro^1–199 [11]): inhibited
2 | CC(C)C[C@H](NC(=O)OCc1ccccc1)C(=O)N[C@H](C=O)C[C@@H]1CCNC1=O [GC373] | only the molecular ions of the unmodified protein | 0.9 ± 0.03 | -6.2 | -2.4 ± 0.1 | 12.7 | only the molecular ions of the unmodified protein | >1200 | 0.88 ± 0.09 | -6 | -1.48 ± 0.24 | 15 | >>1200 µM | ≤2^(d) µM | 1200 ± 200 | more than 175 µM | 20 | about 14% | not observed | Kdimer.app (MPro^M): 6.2^(e^) µM; N (MPro^10–306 [12]): 0.54 ± 0.03; ΔG (MPro^10–306 [12]): -6 kcal/mol; ΔH (MPro^10–306 [12]): -1.38 ± 0.1 kcal/mol; ΔS (MPro^10–306 [12]): 15.3 cal/mol/K; Kd (MPro^10–306 [12]; read-out: Kd = Ki): 44 ± 8 µM; fold increase in Kd (weaker binding) relative to MPro^WT [13]: 200 to 300 fold; net ΔG difference relative to MPro^WT [13]: about 3 kcal/mol; Kd ([13]; read-out: Kd range): 32 to 45 µM; Kd ([3]; read-out: Kd = Ki): 32 ± 5 µM; dimer formation in SV-AUC (MPro^1–196 [5]): no dimer was observed; Kd (MPro^1–196 [6]; read-out: Kd = Ki): 45 ± 20 µM; N [14]: 1.07 ± 0.02; ΔG [14]: -7.2 kcal/mol; ΔH [14]: -6.0 ± 0.2 kcal/mol; ΔS [14]: 3.9 cal/mol/K; Kd ([14]; read-out: Kd = Ki): 6.2 µM and 6.13 µM
